{
  "source": "patent US20200129450A1",
  "about": "“COMPOSITION COMPRISING OSMUNDACETONE OR PHARMACEUTICALLY ACCEPTABLE SALT THEREOF FOR PREVENTING OR TREATING BONE DISEASE” (KORPHARM CO., LTD., priority 2016, published 2020)",
  "test_in_all_cases": "MTT assay cytotoxicity",
  "format_in_all_cases": "cell-based",
  "key": {"[1]": {"test_system": "HaCaT human epidermal keratinocytes", "settings": "24 hours, read-out: IC50 according to MTT assay", "experimental": "(§1) HaCaT human epidermal keratinocytes, # ATCC PCS-200-011) were incubated using Dulbecco's modified Eagle's medium (DMEM, # DMEM-HPA, Capricorn Scientific, Ebsdorfergrund, Germany) in the conditions of 37° C. and 5% CO2. NIH3T3 mouse embryo fibroblasts (# KCLB 21658), RAW264.7 murine macrophages (preosteoclast cell line, # KCLB 40071), HCT116 human colon cancer cells (# KCLB 10247), PC3 human prostate adenocarcinoma cells (# KCLB 21435), HT1080 human fibrosarcoma cells (# KCLB 1121), and B16F10 mouse malignant melanoma cells (# KCLB 80008) were purchased from the Korean Cell Line Bank, and incubated using DMEM in the conditions of 37° C. and 5% C02.\n(§2) The compound isolated from Osmunda japonica, prepared in section 1 of <Example 1>, was investigated for cytotoxicity using MTT assay.\n(§3) MTT assay was as follows.\n(§4) Cells were incubated at 1×10^3 cells/well in a 96-well plate containing DMEM with 10% fetal bovine serum (FBS) at 5% CO2 and 37° C., and then osmundacetone was added to the cell medium, followed by incubation for 24 hours. Thereafter, 100 μL of MTT (0.5 mg/ml PBS) was administered, followed by incubation for 2 hours. Thereafter, the medium was removed from each well, and 100 μL of DMSO was added. After incubation for 10 minutes, the absorbance was measured using a microplate reader (SPCTRA MAX 340PC, Molecular Devices, USA) at 570 nm. The absorbance is an indicator showing the number of living cells, and calculated by the following equation. The reproducibility thereof was validated by three experiments.\n(§5) Cell proliferation (%)=OD550(sample)/OD550(control)"}, "[2]": {"test_system": "PC3 human prostate adenocarcinoma", "settings": "PC3, 24 hours", "experimental": "as §1, §2, §3, §4, §5"}, "[3]": {"test_system": "RAW264.7 mouse macrophage cell line", "settings": "RAW264.7, 24 hours", "experimental": "as §1, §2, §3, §4, §5"}},
  "data": [
    {"compound": "CC(=O)/C=C/c1ccc(O)c(O)c1", "note": "[Osmundacetone, (3E)-4-(3,4-dihydroxyphenyl)-3-buten-2-one]", "values": [
      {"measurement": "IC50", "setting": "[1]", "result": "3.51 ± 0.11", "unit": "mM"},
      {"measurement": "LD50 (MTT assay)", "setting": "[2]", "result": "65.5 ± 8.7", "unit": "µM"},
      {"measurement": "LD50 (MTT assay)", "setting": "[3]", "result": "507 ± 98", "unit": "µM"}
    ]}
  ]
}
